Data reported in article PMC6218249 (Bioorganic & medicinal chemistry letters, 2018).
Converted amounts (≈) assume the structure as drawn.

Assays:
[1] = In vivo pharmacokinetics in C57BL/6 mice; settings: C57BL/6, mouse, plasma, other: intravenous and oral, 3 mg/kg
physchem = settings: pH 7.4

NS(=O)(=O)c1ccc(-c2cnn3cc(-c4ccc(CN5CCCC5)cc4)cnc23)c2ccccc12 [Compound 22]
PAMPA (x10^−6 cm/s) (PAMPA permeability): 467 x10^−6 cm/s

CN(C)CCOc1ccc(-c2cnc3c(-c4ccc(S(N)(=O)=O)c5ccccc45)cnn3c2)cn1 [Compound 13]
PAMPA (x10^−6 cm/s) (PAMPA permeability): 8.8 x10^−6 cm/s

NS(=O)(=O)c1ccc(-c2cnn3cc(-c4ccc(OCCN5CCCCC5)nc4)cnc23)c2ccccc12 [Compound 14]
PAMPA (x10^−6 cm/s) (PAMPA permeability): 364.7 x10^−6 cm/s

CC(c1ccc(-c2cnc3c(-c4ccc(S(N)(=O)=O)c5ccccc45)cnn3c2)cc1)N1CCCC1 (centres unmarked) [Compound 23]
half-life [1]: 3 to 4 h | solubility (physchem): 14 µM (≈ 6.97 µg/mL) | PAMPA (x10^−6 cm/s) (PAMPA permeability): 1116.0 x10^−6 cm/s

CC(C)(CN1CCCCC1)Oc1ccc(-c2cnc3c(-c4ccc(S(N)(=O)=O)c5ccccc45)cnn3c2)cc1 [Compound 17]
PAMPA (x10^−6 cm/s) (PAMPA permeability): 1920.5 x10^−6 cm/s

NS(=O)(=O)c1ccc(-c2cnn3cc(-c4ccc(N5CCNCC5)nc4)cnc23)c2ccccc12 [Compound 12]
PAMPA (x10^−6 cm/s) (PAMPA permeability): 8.3 x10^−6 cm/s

CC(C)(N)c1ccc(-c2cnc3c(-c4ccc(S(N)(=O)=O)c5ccccc45)cnn3c2)cc1 [Compound 20]
PAMPA (x10^−6 cm/s) (PAMPA permeability): 9.4 x10^−6 cm/s

NS(=O)(=O)c1ccc(-c2cnn3cc(-c4ccc(C5CCNCC5)cc4)cnc23)c2ccccc12 [Compound 15]
PAMPA (x10^−6 cm/s) (PAMPA permeability): 78.6 x10^−6 cm/s

NS(=O)(=O)c1ccc(-c2cnn3cc(-c4ccc(OCCN5CCCC5)cc4)cnc23)c2ccccc12 [Compound 18]
PAMPA (x10^−6 cm/s) (PAMPA permeability): 317 x10^−6 cm/s
